Results as given in patent US5912247A, “Quinazoline compound and anti-tumor agent containing said compound as an active ingredient” (Kanebo, Ltd., priority 1995, dated 1999).

Columns and labels:
Hemolytic activity = format: cell-based, Male Donryu rats; conditions: rat, red blood cells; 20 μg/ml, 37° C., 60 minutes; read-out: hemolytic ratio
Description: (§1) Hemolytic activity: a) Materials: Test Animal: Male Donryu rats Test Compounds: The same as in Experiment 1 b) Test Method: Blood (about 6 ml or more) was collected from abdominal large vein of male Donryu rats, which was taken in a test tube containing dipotassium ethylenediamine tetraacetate (10 mg). The blood thus collected was divided into each 2 ml, which was centrifuged at 3,000 rpm for 5 minutes. After removing the supernatant, a 150 mM phosphate buffer (pH 7.4) (10 ml) was added thereto, and the mixture was mildly mixed. The mixture was centrifuged at 3,000 rpm for 5 minutes, followed by washing with the same phosphate buffer as above. This procedure was repeated twice. Finally, the same phosphate buffer was added thereto to prepare a test blood cell suspension. The test compound was dissolved in a saline solution in a concentration of 2 mg/ml in case of No. 5666, and of 20 mg/ml in case of the test compounds of this invention. […] Immediately after the incubation, the mixture was centrifuged at 3,000 rpm for 5 minutes, and the supernatant (each 200 μl) was added to a well of a 96 well microplate (an immunoassay plate with plane bottom), and the absorbance (OD: optical density) was read with a microplate reader (at a wavelength of 550 nm). […] The hemolytic rate was calculated by the following equation: [formula] […]

[1] = test system: test blood cell suspension; assay: Hemolytic activity; format: cell-based, Male Donryu rats; conditions: 20 μg/ml
Description: as §1

[2] = test system: St-4 solid tumor (human gastric cancer transplantable to nude mouse); assay: Anti-tumor activity against human gastric cancer St-4 (solid tumor) transplanted to nude mouse; format: in vivo, human (in male BALB/cA JCI-nu nude mice)
Excerpt: Anti-tumor activity against human gastric cancer St-4 (solid tumor) transplanted to nude mouse: a) Materials: Test Animal: Male BALB/cA JCI-nu nude mice (six week old, six mice per group) Tumor: St-4 solid tumor (human gastric cancer transplantable to nude mouse) b) Test Method: St-4 solid tumor was cut to about 3 mm cubic, and the fragments were subcutaneously transplanted into the back at one side of the nude mice with a trockar. Ten days after the transplantation, the longitudinal size (L) and the size of the width direction (W) of the tumor were measured. The tumor weight was calculated by the formula: L×W×W/2, and when the weight of the tumor reached 100 mg to 300 mg, the mice were randomized. To the mice in test groups, the test compound was orally administered once a day for 40 days. The test compounds of this invention were administered in an amount of 30 mg/kg or 40 mg/kg in the form of a solution in distilled water, and No. 5666 was administered in an amount of 30 mg/kg or 100 mg/kg in the form of a suspension in 5% arabic gum solution. After the administration of the test compounds, the longitudinal size and the size in the width direction of the tumor were measured, and then the weight of tumor was calculated. The ratio of the tumor weight after treated with test compounds to the tumor weight before administration of test compounds (i.e. the relative tumor weight) was determined. As to the control group, the relative tumor weight was also determined likewise. The anti-tumor activity was evaluated in the same manner as described in Ann. Clin. Lab. Sci., 8 (1), 50 (1978). That is, the ratio of the relative tumor weight in the test group (T) to that in the control group (C) [T/C (%)] was calculated, and when the minimum of the ratio [Min.

Colon 26 solid tumor = assay: Inhibitory activity of dye accumulation in the solid tumor tissue (inhibition of the tumor blood flow); format: in vivo, Male BALB/c mice; parameters: key to Inhibitory activity of dye accumulation into solid tumor: +: The average absorbance in the test group is significantly smaller than the average absorbance in the control group.; -: There is no significant difference in the average absorbance between the test group and the control group; conditions: for Inhibitory activity of dye accumulation into solid tumor: intravenous, Evans blue 1 hour after administration
Description: Inhibitory activity of dye accumulation in the solid tumor tissue (inhibition of the tumor blood flow): a) Materials: Test Animal: Male BALB/c mice (weighing 21-27 g, six mice per group) Tumor: Colon 26 solid tumor b) Test Method: Colon 26 solid tumor was cut in a size of about 1 mm square. The pieces of solid tumor were treated with a 0.25% collagenase solution and 0.02% deoxyribonuclease solution at 37° C. for 1.5 hour to give a cell suspension of colon 26 solid tumor cells. The cell suspension was adjusted to 3×10^6 cells/ml and the cell suspension (100 μl) was subcutaneously inoculated on the right back of male BALB/c mice. Ten days after the transplantation, the longitudinal size of the tumor was measured, and when the longitudinal size of the tumor reached about 10 mm, the mice were randomized. To the mice in test groups, the test compound was intravenously administered in an amount of 10 mg/kg or 1.25 mg/kg. The test compound was administered in the form of a solution in saline (in the test solution of Test Compound BF and BK, an equimolar amount of fumaric acid was further added, and in the test solution of Test Compound BN, an equimolar amount of hydrochloric acid was further added). To the mice in the control group, only saline was administered intravenously. One hour after the administration, 3% Evans blue-saline solution was injected intravenously via the tail vein of the mice in a volume of 0.1 ml per 10 g of the body weight of mouse, and 5 minutes later the mice were killed by luxation of the cervical vertebrae. After removing the tumor, the tumor was weighed. To extract Evans blue, the tumor was suspensed in 0.5% aqueous sodium sulfate (1.5 ml per 1 g of the tumor) and acetone (3.5 ml per 1 g of tumor), and then the tumor was cut into small pieces. After allowing to stand at room temperature overnight, the suspension were centrifuged at 3,000 rpm for 10 minutes to extract Evans blue, and the absorbance of the supernatant was read at 630 nm. […] (-): There is no significant difference in the average absorbance between the test group and the control group.

## C=CCN1CCN(c2nc(OCCCCC)c3ccccc3n2)CC1.O=C(O)/C=C/C(=O)O [No. 5666, 2-(4-Allylpiperazin-1-yl)-4-[(1-pentyl)oxy]-quinazoline monofumarate, reference compound]
Hemolytic activity
  hemolysis at 1 h: 38%
[1]
  hemolytic activity (in words): induced hemolytic activity
[2]; 30 mg/kg (po) (× 40 days)
  Evaluation: Non-effective
  Min. T/C (%): 59.7%
[2]; 100 mg/kg (po) (× 40 days)
  Evaluation: Effective (when the minimum of the ratio [Min. T/C (%)] was less than 42%, the test compound was evaluated as "effective")
  Min. T/C (%): 29.9%
Colon 26 solid tumor; 1.25 mg/kg
  Inhibitory activity of dye accumulation into solid tumor: -
Colon 26 solid tumor; 10 mg/kg
  Inhibitory activity of dye accumulation into solid tumor: +
Colon 26 solid tumor; mouse solid tumor (colon 26)
  inhibition of the flow of blood into tumor tissue / dye accumulation (in words): has such an inhibitory activity
